Experimental data as given in article PMC4747864 (Molecular cancer therapeutics, 2015).
“Also recorded” adds a separate entry of the source. One block for each compound: values may come before it. Where a SMILES comes first, the peptide text is derived from it. Bridges are numbered along the chain shown (N, C = ends). [ ]: non-standard residue; d: D form. dPen = CC(C)(S)[C@@H](N)C(=O)O; βAla = NCCC(=O)O

Legend:
[1] = system: U-87MG glioblastoma cells; test: Binding to U-87MG glioblastoma cells in vitro; format: cell-based
[2] = biological target: T1, αvβ5 integrin (αvβ5-K562 cells) (Homo sapiens, UniProt P06756+P18084); format: binding; conditions: 1μM biotinylated LXW64, then streptavidin-PE, flow cytometry
[3] = biological target: T2, αIIbβ3 integrin (αIIbβ3-K562 cells) (Homo sapiens, UniProt P05106+P08514); format: binding; conditions: 1μM biotinylated LXW64, then streptavidin-PE, flow cytometry
[4] = biological target: T3, αvβ3 integrin (αvβ3-K562 cells) (Homo sapiens, UniProt P05106+P06756); format: binding; conditions: 1μM biotinylated LXW64, then streptavidin-PE, flow cytometry
[5] = biological target: αvβ3 integrin (K562/αvβ3+ cells) (Homo sapiens, UniProt P05106+P06756); format: binding; conditions: for decrease (loss) of binding affinity / potency relative to LXW7: versus parent LXW7
[6] = biological target: T4, α5β1 integrin (parent K562 cells) (Homo sapiens, UniProt P05556+P08648); format: binding; conditions: 1μM biotinylated LXW64, then streptavidin-PE, flow cytometry
[7] = biological target: T1, αvβ5 integrin (αvβ5-K562 cells); conditions: earlier study; cited from earlier work
[8] = biological target: T4, α5β1 integrin (parent K562 cells); conditions: earlier study; cited from earlier work
[9] = biological target: T3, αvβ3 integrin (αvβ3-K562 cells); conditions: earlier study; cited from earlier work
[10] = biological target: T2, αIIbβ3 integrin (αIIbβ3-K562 cells); conditions: earlier study; cited from earlier work
[11] = system: glioblastoma U-87MG or melanoma A375M xenograft models; conditions: in vivo and ex vivo optical imaging, U-87MG or A375M xenograft models; cited from earlier work

decrease (loss) of binding affinity / potency relative to LXW7 [5]: 11 fold
Compound: CC(C)[C@H]1NC(=O)[C@@H](CC(=O)O)NC(=O)[C@H](CC(=O)O)NC(=O)CNC(=O)[C@H](CCCNC(=N)N)NC(=O)CCNC(=O)[C@H](N)CSSC[C@H](C(N)=O)NC1=O [peptide 9, c-βala-RGDdvc-NH2] (H-[dC][βAla]RGD[dD][dV][dC]-NH2; disulfide 1-8 (inferred); N-terminus assumed)

decrease (loss) of binding affinity / potency relative to LXW7 [5]: 7.8 fold
Compound: CC(C)[C@H]1NC(=O)[C@@H](CC(=O)O)NC(=O)[C@H](CC(=O)O)NC(=O)CNC(=O)[C@H](CCCNC(=N)N)NC(=O)[C@@H](C)NC(=O)[C@H](N)CSSC[C@H](C(N)=O)NC1=O [peptide 8, caRGDdvc-NH2] (H-[dC][dA]RGD[dD][dV][dC]-NH2; disulfide 1-8 (inferred); N-terminus assumed)

decrease (loss) of binding affinity / potency relative to LXW7 [5]: 4 to 10 fold
Compound: CC(C)[C@H]1NC(=O)[C@@H](CC(=O)O)NC(=O)[C@H](CC(=O)O)NC(=O)CNC(=O)[C@H](CCCNC(=N)N)NC(=O)CNC(=O)[C@H](N)C(C)(C)SSC(C)(C)[C@H](C(N)=O)NC1=O [peptide 7, DPen-GRGDdv-DPen-NH2] (H-[dPen]GRGD[dD][dV][dPen]-NH2; disulfide 1-8 (inferred); N-terminus assumed)

decrease (loss) of binding affinity / potency relative to LXW7 [5]: 4 to 10 fold
Compound: CC(C)[C@H]1NC(=O)[C@@H](CC(=O)O)NC(=O)[C@H](CC(=O)O)NC(=O)CNC(=O)[C@H](CCCNC(=N)N)NC(=O)CNC(=O)[C@H](N)CSSC(C)(C)[C@H](C(N)=O)NC1=O [peptide 6, cGRGDdv-DPen-NH2] (H-[dC]GRGD[dD][dV][dPen]-NH2; disulfide 1-8 (inferred); N-terminus assumed)

binding affinity compared with LXW7 (in words) [5]: complete loss of binding affinity
Compound: CC(C)[C@H]1NC(=O)[C@@H](CC(=O)O)NC(=O)[C@H](CC(=O)O)NC(=O)CNC(=O)[C@H](CCCNC(=N)N)NC(=O)CNC(=O)[C@@H](N)CSSC[C@@H](C(N)=O)NC1=O [peptide 4, CGRGDdvC-NH2] (H-CGRGD[dD][dV]C-NH2; disulfide 1-8 (inferred); N-terminus assumed)

decrease (loss) of binding affinity / potency relative to LXW7 [5]: 4 to 10 fold
Compound: CC(C)[C@H]1NC(=O)[C@@H](CC(=O)O)NC(=O)[C@H](CC(=O)O)NC(=O)CNC(=O)[C@H](CCCNC(=N)N)NC(=O)CNC(=O)[C@H](N)C(C)(C)SSC[C@H](C(N)=O)NC1=O [peptide 5, DPen-GRGDdvc-NH2] (H-[dPen]GRGD[dD][dV][dC]-NH2; disulfide 1-8 (inferred); N-terminus assumed)

decrease (loss) of binding affinity / potency relative to LXW7 [5]: 16 fold
Compound: CC(C)[C@H]1NC(=O)[C@@H](CC(=O)O)NC(=O)[C@H](CC(=O)O)NC(=O)CNC(=O)[C@H](CCCNC(=N)N)NC(=O)CNC(=O)[C@H](N)CSSC[C@@H](C(N)=O)NC1=O [peptide 3, cGRGDdvC-NH2] (H-[dC]GRGD[dD][dV]C-NH2; disulfide 1-8 (inferred); N-terminus assumed)

Further lines, the compound ahead of its results:

Compound: N=C(N)NCCC[C@@H]1NC(=O)CNC(=O)[C@H](N)CSSC[C@H](C(N)=O)NC(=O)[C@@H](Cc2cccc3ccccc23)NC(=O)[C@@H](CC(=O)O)NC(=O)[C@H](CC(=O)O)NC(=O)CNC1=O [peptide 40, cGRGDd-DNal1-c-NH2]
binding to U-87MG glioblastoma cells [1]: binding strongly
binding to αvβ5-K562 cells [2]: weakly
binding to αIIbβ3-K562 cells [3]: weakly
binding to αvβ3-K562 cells [4]: strongly; also recorded: significant positive binding
higher binding affinity than LXW7 ([5]; versus LXW7): 6.6 fold
binding to parent K562 cells (α5β1) [6]: no binding

Compound: CC(C)[C@H]1NC(=O)[C@@H](CC(=O)O)NC(=O)[C@H](CC(=O)O)NC(=O)CNC(=O)[C@H](CCCNC(=N)N)NC(=O)CNC(=O)[C@H](N)CSSC[C@H](C(N)=O)NC1=O [peptide 1, cGRGDdvc-NH2] (H-[dC]GRGD[dD][dV][dC]-NH2; disulfide 1-8 (inferred); N-terminus assumed)
binding to αvβ5 integrin [7]: weakly
binding to α5β1 integrin [8]: no binding
binding to αvβ3 integrin [9]: strongly
binding to αIIbβ3 integrin [10]: weakly
liver uptake [11]: low liver uptake
tumor uptake [11]: excellent tumor uptake

Compound: CC(C)[C@H]1NC(=O)[C@@H](CC(=O)O)NC(=O)[C@H](CC(=O)O)NC(=O)CNC(=O)[C@H](CCCNC(=N)N)NC(=O)CNC(=O)[C@@H](N)CSSC[C@H](C(N)=O)NC1=O [peptide 2, CGRGDdvc-NH2] (H-CGRGD[dD][dV][dC]-NH2; disulfide 1-8 (inferred); N-terminus assumed)
decrease (loss) of binding affinity / potency relative to LXW7 [5]: 10 fold

Compound: R3-cGRGDdvc-NH2 [compound 20]
binding affinity compared with LXW7 (in words) [5]: modest loss of potency

Compound: R4-cGRGDdvc-NH2 [compound 21]
binding affinity compared with LXW7 (in words) [5]: modest loss of potency
